Results on ten molecules are retold here after PubChem BioAssay AID686966 (The Scripps Research Institute Molecular Screening Center, 2013).

The source made the active and inactive calls. How the calls were made is not given here.

The assay has as its target Tyrosine-protein kinase ABL1 (Homo sapiens) + Ras and Rab interactor 1 (Homo sapiens) (UniProt P00519+Q13671). The assay is described as follows: Rin1/ABL1 binding disruption, potency – biochemical, TR-FRET, round 2, late-stage follow-up (AID 686966). Conditions: TR-FRET Rin1-Abl binding. On the technique in general: Time-resolved FRET reads energy transfer from a long-lived donor to a nearby acceptor.

As usually defined, the IC50 is the concentration at which inhibition is half-maximal.

Sequence of Tyrosine-protein kinase ABL1 (Homo sapiens) + Ras and Rab interactor 1 (Homo sapiens) (P00519 whole entry, looked up): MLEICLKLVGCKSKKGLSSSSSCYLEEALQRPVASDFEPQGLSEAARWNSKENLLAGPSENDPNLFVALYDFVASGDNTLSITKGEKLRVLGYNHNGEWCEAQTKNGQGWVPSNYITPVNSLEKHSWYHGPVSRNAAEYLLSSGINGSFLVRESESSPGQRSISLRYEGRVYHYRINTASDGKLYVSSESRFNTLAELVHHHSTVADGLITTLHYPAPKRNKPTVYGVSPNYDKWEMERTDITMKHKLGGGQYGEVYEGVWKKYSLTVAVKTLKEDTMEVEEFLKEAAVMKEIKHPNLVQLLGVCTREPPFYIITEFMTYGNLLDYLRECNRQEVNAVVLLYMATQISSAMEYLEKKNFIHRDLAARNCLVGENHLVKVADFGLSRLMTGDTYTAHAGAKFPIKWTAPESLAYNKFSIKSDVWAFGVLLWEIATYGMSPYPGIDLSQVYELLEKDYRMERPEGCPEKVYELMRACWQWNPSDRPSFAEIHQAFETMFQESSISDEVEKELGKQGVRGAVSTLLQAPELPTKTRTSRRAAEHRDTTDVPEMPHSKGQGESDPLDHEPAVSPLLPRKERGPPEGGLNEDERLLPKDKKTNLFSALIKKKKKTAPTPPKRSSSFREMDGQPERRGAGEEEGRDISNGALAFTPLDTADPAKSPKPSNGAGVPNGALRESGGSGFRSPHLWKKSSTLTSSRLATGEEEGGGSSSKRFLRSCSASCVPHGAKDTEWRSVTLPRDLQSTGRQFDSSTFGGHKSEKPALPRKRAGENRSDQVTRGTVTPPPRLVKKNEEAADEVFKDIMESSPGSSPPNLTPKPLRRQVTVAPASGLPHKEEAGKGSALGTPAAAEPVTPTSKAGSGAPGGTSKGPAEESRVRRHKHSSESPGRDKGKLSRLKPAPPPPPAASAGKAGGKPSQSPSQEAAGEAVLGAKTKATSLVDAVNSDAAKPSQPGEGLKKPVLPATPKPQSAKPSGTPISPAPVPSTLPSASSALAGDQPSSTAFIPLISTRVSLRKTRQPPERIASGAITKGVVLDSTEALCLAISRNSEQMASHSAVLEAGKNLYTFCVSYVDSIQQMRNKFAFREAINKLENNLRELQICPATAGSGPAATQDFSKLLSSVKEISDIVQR
Sequence of Tyrosine-protein kinase ABL1 (Homo sapiens) + Ras and Rab interactor 1 (Homo sapiens) (Q13671 whole entry, looked up): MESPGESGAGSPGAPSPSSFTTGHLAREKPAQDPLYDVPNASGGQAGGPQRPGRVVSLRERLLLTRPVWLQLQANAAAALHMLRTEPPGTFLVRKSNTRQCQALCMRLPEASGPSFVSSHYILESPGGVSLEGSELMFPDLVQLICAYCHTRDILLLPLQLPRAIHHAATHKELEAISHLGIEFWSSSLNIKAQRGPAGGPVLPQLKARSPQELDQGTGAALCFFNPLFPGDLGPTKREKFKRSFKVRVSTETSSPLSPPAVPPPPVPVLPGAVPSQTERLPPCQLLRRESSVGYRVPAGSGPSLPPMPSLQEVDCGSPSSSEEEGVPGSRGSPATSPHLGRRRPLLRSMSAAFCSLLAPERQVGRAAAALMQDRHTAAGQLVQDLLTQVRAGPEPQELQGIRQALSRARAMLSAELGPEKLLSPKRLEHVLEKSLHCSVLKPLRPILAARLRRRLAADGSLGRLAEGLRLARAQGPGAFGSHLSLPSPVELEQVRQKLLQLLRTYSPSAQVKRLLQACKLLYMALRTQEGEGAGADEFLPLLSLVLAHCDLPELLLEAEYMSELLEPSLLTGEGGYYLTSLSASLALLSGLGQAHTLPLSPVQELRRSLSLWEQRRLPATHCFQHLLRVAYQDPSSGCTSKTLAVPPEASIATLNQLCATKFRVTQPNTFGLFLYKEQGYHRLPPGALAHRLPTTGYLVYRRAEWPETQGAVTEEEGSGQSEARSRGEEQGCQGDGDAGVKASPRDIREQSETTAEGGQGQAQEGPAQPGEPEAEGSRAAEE

As for `COc1ccc(COc2ccnc(OC)c2)cc1`, the IC50 was > 73500 nM (inactive).
As for `Nc1cc(OCc2ccccc2)ccn1`, the IC50 is > 73500 nM (inactive).
With `COc1ccc(COc2cc[nH]c(=O)c2)cc1` the figure was 39.8 nM; with `COc1cc(OCc2ccccc2)ccn1`, > 73500 nM (inactive).
The result for `COc1cc(OCc2ccc(F)cc2)ccn1` reads “inactive”.
The result for `Cn1ccc(OCc2ccccc2)cc1=O` reads > 73500 nM (inactive); that for `O=c1cc(OCc2ccccc2)cc[nH]1`, 23.1 nM.
Turning to `COc1ccc(COc2ccn(C)c(=O)c2)cc1`, the IC50 was > 73500 nM (inactive).
Consider `Cn1ccc(OCc2ccc(F)cc2)cc1=O`, for which the IC50 result was “inactive”.
Take `O=c1cc(OCc2ccc(F)cc2)cc[nH]1`: the IC50 was 19.4 nM.
